“Also recorded” adds a separate entry of the source.
How the values were obtained:
GFAP expression = assay: Traumatic brain injury (TBI) in mice, Western blot analysis for GFAP; assay type: in vivo; conditions: for GFAP expression in brain (Western blot, GFAP/actin): 7 days post-injury, versus untreated TBI
Procedure: Animals and traumatic brain injury (TBI): TBI was performed with a controlled closed skull injury model as described in […] al. 2012 (J. Neurotrauma 30, 55-66). Following the method described therein, a pneumatic impact device was used to generate a moderate TBI leaving the skull and dura matter intact. To achieve this, C57BL/6 mice were anesthetized with isoflurane (3% induction, 1% maintenance) in 100% oxygen. A body temperature of 37° C. was maintained using a temperature-controlled heated surgical table. A small midline incision was made on the scalp using aseptic surgical techniques. A 5 mm stainless steel disc was positioned on the skull and fixed using superglue on the right parietal bone between bregma and lamda over the somatosensory cortex. The mouse was then positioned on a stage directly under the pneumatic impact tip. […] Scalp incisions were closed using 4-0 nylon braided suture and antibiotic ointment applied to the incision. Mice were placed in a Thermo-Intensive Care Unit (Braintree Scientific model FV-1; 37° C.; 27% 02) and monitored until fully awake and moving freely. […] Western Blot Analysis for GFAP: At selected survival times, mice were anesthetized under isoflurane and sacrificed. The brain was removed and placed on ice for dissection into impacted and non-impacted brain hemispheres. […] The homogenate was transferred to a 2 mL tube and centrifuged at 1000 g for 10 minutes at 4° C. and the supernatant was collected and analyzed. Protein concentration was determined by the BCA assay using a 1:50 dilution. 100 μg of protein was removed as an aliquot for each sample and Laemmli buffer containing β-mercaptoethanol added and the sample placed in a heat block for 3 minutes at 95° C. Samples were loaded on a 12% gel and ran at 80 V for 20 minutes followed by 40 minutes at 130 V. Samples were transferred to nitrocellulose membrane at 100 V for 1 hour. The membrane was blocked with 5% milk in TBS-T for 30 minutes. GFAP (1:1000-Imgenex IMG-5083-A) was added and placed at 4° C. overnight. The membrane was washed with TBS-T three times for 10 minutes. Secondary antibody for GFAP (Donkey anti-rabbit HRP conjugated (ImmunoJackson Laboratories; 711-035-152; 1:20000) was applied at room temperature for 1 hour. The membranes were washed with TBS-T for 15 minutes (3 times) and developed using the Western Lightning Plus-ECL kit (PerkinElmer, Inc.) following manufacturer's directions.

[1] = In vitro stability and metabolite scouting of MRS2365 in human whole blood; assay type: in vitro ADME; conditions: 100 μM in human whole blood, lithium heparin as anti-coagulant
Procedure: (§1) Whole blood was obtained from male CD-1 mice and human volunteers at Seventh Wave Laboratories (Maryland Heights, MO). Plasma and blood samples were prepared using either EDTA (1 mM) or lithium heparin as anticoagulants.
Blood sample aliquots were obtained at 0, 1, 2.5, 7.5, 10 and 30 minutes and placed in microtainer tubes. For metabolite scouting analyses, MRS2365 was incubated in heparinized human whole blood at a concentration of 100 μM for 10 or 30 minutes (FIG. 10). In all studies, plasma was immediately prepared by centrifugation at 4° C., placed in microtainer tubes, frozen on dry ice and stored at −80° C. until analysis. […]
(§2) Plasma and blood samples were also qualitatively analyzed for MRS2365 metabolites utilizing a LC-MS/MS-based “metabolite scouting” protocol. […] Blood and plasma samples were analyzed by both positive- and negative-ion LC/MS-MS for parent compound and metabolites as it was anticipated that the phosphorylated compounds would preferentially generate negative ions while the riboside MRS4322 would preferentially generate positive ions. In positive-ion mode, extracted ion chromatograms monitored masses in the range of 323.7-324.7 and 403.7-404.7 to scout for MRS4322 and MRS2347, respectively. Any ion peaks in these ranges were further analyzed to generate product ion spectra for these ion chromatogram peaks. […]

[2] = In vitro stability of MRS2365 in mouse plasma; assay type: in vitro ADME; conditions: heparin-treated mouse plasma, 0-90 seconds, even at 0 and 5 seconds
Procedure: as §1
Plasma Stability Determination: MRS2365, enalapril and procaine were solubilized in phosphate-buffered saline, pH 7.4. […] Stability incubations were initiated with the addition of MRS2365 (1 μM final concentration). Initial assessments of stability in EDTA-generated plasma utilized incubation timepoints of 0, 10, 30, 60, 120 and 240 minutes (FIGS. 3 and 4). Subsequent studies comparing EDTA- and heparin-generated plasma utilized incubation timepoints of 0, 1, 2.5, 5, 7.5, 10 and 30 minutes (FIG. 7). Additional plasma stability incubations comparing EDTA- and heparin-generated plasma were performed using timepoints of 0, 5, 10, 20, 30, 45, 60 and 90 seconds (FIG. 8). For metabolite scouting analyses, MRS2365 was incubated in heparinized human plasma at a concentration of 100 μM for 10 or 30 minutes (FIG. 9). In all studies, plasma was immediately placed in microtainer tubes, frozen on dry ice and stored at −80° C. until analysis.
The following table outlines the LC and MS/MS conditions employed (Table 11).
The calibration range for MRS2365 plasma and blood concentration standard curves was 5-5000 ng/mL. […]

[3] = In vitro stability and metabolite scouting of MRS2365 in human plasma; assay type: in vitro ADME
Procedure: as §1
Plasma Stability Determination: MRS2365, enalapril and procaine were solubilized in phosphate-buffered saline, pH 7.4. […] Stability incubations were initiated with the addition of MRS2365 (1 μM final concentration). Initial assessments of stability in EDTA-generated plasma utilized incubation timepoints of 0, 10, 30, 60, 120 and 240 minutes (FIGS. 3 and 4). […]
as §2

[4] = TBI mice, approx. 0.5 μmol/kg 30 min post-TBI

Structure (SMILES)	GFAP expression in brain (Western blot, GFAP/actin) (GFAP expression; [4])	metabolites observed (M2 = MRS2347, M1 = MRS4322) [1]	MRS2365 concentrations during incubation [2]	metabolites observed (M2 = MRS2347, M1 = MRS4322) ([3]; 100 μM in human plasma, lithium heparin as anti-coagulant)	MRS2365 concentrations during incubation ([3]; heparin-treated human plasma, 0-90 seconds, even at 0 and 5 seconds)	GFAP levels in plasma (Western blot, relative to actin) (GFAP expression; TBI mice, approx. 0.5 μmol/kg 30 min post-TBI, day 7, versus untreated TBI)	efficacy in the mouse TBI model (GFAP expression; summary statement)
CSc1nc(N)c2ncn([C@H]3[C@H](O)[C@H](O)[C@]4(COP(=O)(O)OP(=O)(O)O)C[C@H]34)c2n1 [MRS2365]	significantly lower; also recorded: decreased	Two metabolites	extremely low	Two metabolites	extremely low		
CSc1nc(N)c2ncn([C@H]3[C@H](O)[C@H](O)[C@]4(CO)C[C@H]34)c2n1 [MRS4322]	significantly lower; also recorded: decreased					significantly reduced	significant efficacy

From patent US12390483B2, “Compounds and methods for treating neurological and cardiovascular conditions” (Astrocyte Pharmaceuticals, Inc., priority 2016, dated 2025)
